According to US9562085B2, “Antimicrobial peptide” (priority 2013, dated 2017):
Like-named read-outs stand apart in the source and are kept apart here. Non-standard residues stand in square brackets, D forms with d. Residues, ends and D or L forms follow the SMILES beside them. *: point of attachment. X1 = NCCOCCOCCOCCOCCOCCOCCOCCOCCOCCOCCOC(=O)*; Ahx = NCCCCCC(=O)O

Test system: S. aureus JAR
Assay type: cell-based
Method: S. aureus JAR is described in Campoccia et al. (Int. J. Artif. Organs, 2008 September; 31(9):841-7).
For the in vitro killing assay with P10 variants, S. aureus JAR ([…] CFU/ml) were incubated for 2 hours at 37° C. with various concentrations of the peptides in PBS or in PBS/human plasma (1/1, v/v). […] The LC99.9 is the average value of two independent experiments.

| Molecule | LC99.9 (μM) (50% plasma) (JAR, 2 h) | LC99.9 (μM) (PBS) (JAR, 2 h) | LC99.9 (μM) (50% plasma) (S. aureus JAR, 2 hours at 37° C. in PBS/human plasma (1/1, v/v), concentration killing 99.9% of the bacteria, average of two experiments) | LC99.9 (μM) (PBS) (S. aureus JAR, 2 hours at 37° C. in PBS, concentration killing 99.9% of the bacteria, average of two experiments) |
| --- | --- | --- | --- | --- |
| CC[C@H](C)[C@H](NC(=O)[C@H](CCCCN)NC(=O)[C@H](CCCCN)NC(=O)[C@H](Cc1ccc(O)cc1)NC(=O)[C@H](CCC(=O)O)NC(=O)[C@H](CCCNC(=N)N)NC(=O)[C@H](C)NC(=O)[C@H](CC(C)C)NC(=O)OCCOCCOCCOCCOCCOCCOCCOCCOCCOCCOCCN)C(=O)N[C@H](C(=O)N[C@@H](CCC(=O)O)C(=O)N[C@@H](CCCCN)C(=O)N[C@@H](CC(C)C)C(=O)N[C@@H](CCCCN)C(=O)N[C@@H](CCCNC(=N)N)C(=O)N[C@@H](Cc1c[nH]c2ccccc12)C(=O)N[C@@H](CC(C)C)C(=O)N[C@@H](CCCNC(=N)N)C(=O)N[C@@H](CCC(N)=O)C(=O)N[C@H](C(=O)N[C@@H](CC(C)C)C(=O)N[C@@H](CCCNC(=N)N)C(=O)N[C@H](C(=O)N[C@@H](CC(C)C)C(=O)N[C@@H](CCCNC(=N)N)C(N)=O)[C@@H](C)O)C(C)C)C(C)C [Peptide 1302-7, oLAREYKKIVEKLKRWLRQVLRTLRB] (X1-LAREYKKIVEKLKRWLRQVLRTLR-NH2; N-terminus assumed) | 102.4 µM | 1.6 µM |  |  |
| CC[C@H](C)[C@H](NC(=O)[C@H](CCCCN)NC(=O)[C@H](CCCCN)NC(=O)[C@H](Cc1ccc(O)cc1)NC(=O)[C@H](CCC(=O)O)NC(=O)[C@H](CCCNC(=N)N)NC(=O)[C@H](C)NC(=O)[C@H](CC(C)C)NC(C)=O)C(=O)N[C@H](C(=O)N[C@@H](CCC(=O)O)C(=O)N[C@@H](CCCCN)C(=O)N[C@@H](CC(C)C)C(=O)N[C@@H](CCCCN)C(=O)N[C@@H](CCCNC(=N)N)C(=O)N[C@@H](Cc1c[nH]c2ccccc12)C(=O)N[C@@H](CC(C)C)C(=O)N[C@@H](CCCNC(=N)N)C(=O)N[C@@H](CCC(N)=O)C(=O)N[C@H](C(=O)N[C@@H](CC(C)C)C(=O)N[C@@H](CCCNC(=N)N)C(=O)N[C@H](C(=O)N[C@@H](CC(C)C)C(=O)N[C@@H](CCCNC(=N)N)C(=O)NCCCCCC(=O)NCCCCCC(N)=O)[C@@H](C)O)C(C)C)C(C)C [Peptide 1302-4, JLAREYKKIVEKLKRWLRQVLRTLRZZB] (Ac-LAREYKKIVEKLKRWLRQVLRTLR[Ahx][Ahx]-NH2) | 38.4 µM | 0.8 µM |  |  |
| Ac-LAREYKRIVEKLKRWLRQVLRTLR-NH2 [Peptide 1302-29, JLAREYKRIVEKLKRWLRQVLRTLRB] | 102.4 µM | 1.6 µM |  |  |
| CC[C@H](C)[C@H](NC(=O)[C@H](CCCCN)NC(=O)[C@@H](CCCCN)NC(=O)[C@H](Cc1ccc(O)cc1)NC(=O)[C@H](CCC(=O)O)NC(=O)[C@H](CCCNC(=N)N)NC(=O)[C@H](C)NC(=O)[C@H](CC(C)C)NC(C)=O)C(=O)N[C@H](C(=O)N[C@@H](CCC(=O)O)C(=O)N[C@@H](CCCCN)C(=O)N[C@@H](CC(C)C)C(=O)N[C@@H](CCCCN)C(=O)N[C@@H](CCCNC(=N)N)C(=O)N[C@@H](Cc1c[nH]c2ccccc12)C(=O)N[C@@H](CC(C)C)C(=O)N[C@@H](CCCNC(=N)N)C(=O)N[C@@H](CCC(N)=O)C(=O)N[C@H](C(=O)N[C@@H](CC(C)C)C(=O)N[C@@H](CCCNC(=N)N)C(=O)N[C@H](C(=O)N[C@@H](CC(C)C)C(=O)N[C@@H](CCCNC(=N)N)C(N)=O)[C@@H](C)O)C(C)C)C(C)C [Peptide 1301-6, JLAREYkKIVEKLKRWLRQVLRTLRB] (Ac-LAREY[dK]KIVEKLKRWLRQVLRTLR-NH2) | 38.4 µM | 0.6 µM |  |  |
| Ac-YKKIVEKLKRWLRQVL-NH2 [Peptide 1302-62, JYKKIVEKLKRWLRQVLB] | 76.8 µM | 1.6 µM |  |  |
| CC[C@H](C)[C@H](NC(=O)[C@H](CCCCN)NC(=O)[C@H](CCCCN)NC(=O)[C@H](Cc1ccc(O)cc1)NC(=O)[C@H](CCC(=O)O)NC(=O)[C@H](CCCNC(=N)N)NC(=O)[C@H](C)NC(=O)[C@H](CC(C)C)NC(C)=O)C(=O)N[C@H](C(=O)N[C@@H](CCC(=O)O)C(=O)N[C@@H](CCCCN)C(=O)N[C@@H](CC(C)C)C(=O)N[C@@H](CCCCN)C(=O)N[C@@H](CCCNC(=N)N)C(=O)N[C@@H](Cc1c[nH]c2ccccc12)C(=O)N[C@@H](CC(C)C)C(=O)N[C@@H](CCCNC(=N)N)C(=O)N[C@@H](CCC(N)=O)C(=O)N[C@H](C(=O)N[C@@H](CC(C)C)C(=O)N[C@@H](CCCNC(=N)N)C(=O)N[C@H](C(=O)N[C@@H](CC(C)C)C(=O)N[C@@H](CCCNC(=N)N)C(=O)NCCCCCC(N)=O)[C@@H](C)O)C(C)C)C(C)C [Peptide 1302-6, JLAREYKKIVEKLKRWLRQVLRTLRZB] (Ac-LAREYKKIVEKLKRWLRQVLRTLR[Ahx]-NH2) | 38.4 µM | 0.6 µM |  |  |
| CC[C@H](C)[C@H](NC(=O)[C@H](CCCCN)NC(=O)[C@H](CCCCN)NC(=O)[C@H](Cc1ccc(O)cc1)NC(=O)[C@H](CCC(=O)O)NC(=O)[C@H](CCCNC(=N)N)NC(=O)[C@H](C)NC(=O)[C@H](CC(C)C)NC(C)=O)C(=O)N[C@H](C(=O)N[C@@H](CCC(=O)O)C(=O)N[C@@H](CCCCN)C(=O)N[C@@H](CC(C)C)C(=O)N[C@H](CCCCN)C(=O)N[C@@H](CCCNC(=N)N)C(=O)N[C@@H](Cc1c[nH]c2ccccc12)C(=O)N[C@@H](CC(C)C)C(=O)N[C@@H](CCCNC(=N)N)C(=O)N[C@@H](CCC(N)=O)C(=O)N[C@H](C(=O)N[C@@H](CC(C)C)C(=O)N[C@@H](CCCNC(=N)N)C(=O)N[C@H](C(=O)N[C@@H](CC(C)C)C(=O)N[C@@H](CCCNC(=N)N)C(N)=O)[C@@H](C)O)C(C)C)C(C)C [Peptide 1301-13, JLAREYKKIVEKLkRWLRQVLRTLRB] (Ac-LAREYKKIVEKL[dK]RWLRQVLRTLR-NH2) | 38.4 µM | 0.6 µM |  |  |
| Ac-LAREYKKIVEKVKRWLRQVLRTLR-NH2 [Peptide 1302-34, JLAREYKKIVEKVKRWLRQVLRTLRB] | 102.4 µM | 3.2 µM |  |  |
| Ac-VAREYKKIVEKLKRWLRQVLRTLR-NH2 [Peptide 1302-18, JVAREYKKIVEKLKRWLRQVLRTLRB] | 76.8 µM | 1.6 µM |  |  |
| Ac-LAREYKKIVPKLKRWLRQVPRTLR-NH2 [Peptide 1302-15, JLAREYKKIVPKLKRWLRQVPRTLRB] | 76.8 µM | >3.2 µM |  |  |
| Ac-REYKKIVEKLKRWLRQVLRT-NH2 [Peptide 1302-58, JREYKKIVEKLKRWLRQVLRTB] | 76.8 µM | 1.6 µM |  |  |
| Ac-LAREYKKIVEKLKRWLRQVVRTLR-NH2 [Peptide 1302-48, JLAREYKKIVEKLKRWLRQVVRTLRB] | 76.8 µM | 1.2 µM |  |  |
| CC[C@H](C)[C@H](NC(=O)[C@H](CCCCN)NC(=O)[C@H](CCCCN)NC(=O)[C@H](Cc1ccc(O)cc1)NC(=O)[C@H](CCC(=O)O)NC(=O)[C@H](CCCNC(=N)N)NC(=O)[C@H](C)NC(=O)[C@H](CC(C)C)NC(C)=O)C(=O)N[C@H](C(=O)N[C@@H](CCC(=O)O)C(=O)N[C@@H](CCCCN)C(=O)N[C@@H](CC(C)C)C(=O)N[C@@H](CCCCN)C(=O)N[C@@H](CCCNC(=N)N)C(=O)N[C@@H](Cc1c[nH]c2ccccc12)C(=O)N[C@H](CC(C)C)C(=O)N[C@@H](CCCNC(=N)N)C(=O)N[C@@H](CCC(N)=O)C(=O)N[C@H](C(=O)N[C@@H](CC(C)C)C(=O)N[C@@H](CCCNC(=N)N)C(=O)N[C@H](C(=O)N[C@@H](CC(C)C)C(=O)N[C@@H](CCCNC(=N)N)C(N)=O)[C@@H](C)O)C(C)C)C(C)C [Peptide 1301-16, JLAREYKKIVEKLKRWlRQVLRTLRB] (Ac-LAREYKKIVEKLKRW[dL]RQVLRTLR-NH2) | 38.4 µM | 0.6 µM |  |  |
| Ac-REYKKIVEKLKRWLRQVLRTLR-NH2 [Peptide 1302-56, JREYKKIVEKLKRWLRQVLRTLRB] | 51.2 µM | 1.6 µM |  |  |
| Ac-LAREYKKIVEKLKRWLRQVARTLR-NH2 [Peptide 1302-49, JLAREYKKIVEKLKRWLRQVARTLRB] |  |  | 51.2 µM | 1.6 µM |
| Ac-LAREYKKIVEKLHRWLRQVLRTLR-NH2 [Peptide 1302-37, JLAREYKKIVEKLHRWLRQVLRTLRB] | 102.4 µM | 3.2 µM |  |  |
| CC[C@H](C)[C@H](NC(=O)[C@H](CCCCN)NC(=O)[C@H](CCCCN)NC(=O)[C@H](Cc1ccc(O)cc1)NC(=O)[C@H](CCC(=O)O)NC(=O)[C@H](CCCNC(=N)N)NC(=O)[C@H](C)NC(=O)[C@H](CC(C)C)NC(C)=O)C(=O)N[C@H](C(=O)N[C@@H](CCC(=O)O)C(=O)N[C@@H](CCCCN)C(=O)N[C@@H](CC(C)C)C(=O)N[C@@H](CCCCN)C(=O)N[C@@H](CCCNC(=N)N)C(=O)N[C@@H](Cc1c[nH]c2ccccc12)C(=O)N[C@@H](CC(C)C)C(=O)N[C@@H](CCCNC(=N)N)C(=O)N[C@@H](CCC(N)=O)C(=O)N[C@H](C(=O)N[C@@H](CC(C)C)C(=O)N[C@@H](CCCNC(=N)N)C(=O)N[C@@H](C(=O)N[C@@H](CC(C)C)C(=O)N[C@@H](CCCNC(=N)N)C(N)=O)[C@H](C)O)C(C)C)C(C)C [Peptide 1301-22, JLAREYKKIVEKLKRWLRQVLRtLRB] (Ac-LAREYKKIVEKLKRWLRQVLR[dT]LR-NH2) | 38.4 µM | 0.6 µM |  |  |
